# Results published in PMC6283615, “Anilinoquinoline based inhibitors of trypanosomatid proliferation” (PLoS Neglected Tropical Diseases, 2018).
# Like-named read-outs stand apart in the source and are kept apart here.
# Tests used:
# [1] = system: T. vivax STIB 719 / ILRAD 560; test: Ex vivo drug sensitivity assay for T. vivax (48 h); type: cell-based; details: Trypanosoma vivax, STIB719, 48 h
# Description: Ex vivo drug sensitivity assay for T. vivax (48 h): Compounds were tested ex vivo against the STIB 719 / ILRAD 560 T. vivax (drug sensitive) strain which originated from the Y486 strain, isolated from a naturally infected bovine in 1976 in Zaria, Nigeria. Compounds were assayed in at least three separate, independent experiments and an 11-point dilution curve was used to determine the EC50 values. Bloodstream form trypanosomes were harvested from a highly parasitaemic mouse (via cardiac puncture) and were incubated with test compounds for 45 h at 37°C in a humidified atmosphere containing 5% CO2, supported in HMI-9 medium containing 20% bovine serum. Thereafter, Resazurin dye was added to monitor trypanosome viability as described in the preceding section.
# [2] = system: T. b. brucei (strain 427); test: T. b. brucei proliferation assay (PrestoBlue, 48 h); type: cell-based, Trypanosoma brucei brucei
# Description: The assay was performed following a previously reported procedure. Briefly, in a 96-well plate, compounds were added in triplicates at 50 μM and in serial dilutions 1:2 in HMI-9 medium. To each well, 100 μL of 2.5×10^3 T. b. brucei (strain 427, received as a gift from Dr. C. C. Wang at UCSF) in HMI-9 medium was were added and incubated at 37°C, 5% CO2 for 48 h. Following incubation, 20 μL of PrestoBlue were added to each well and incubated for additional 4 h. Fluorescence was read at 530 nm excitation and 590 nm emission.
# [3] = system: T. congolense IL3000; test: In vitro drug sensitivity assay for T. congolense (72 h); type: cell-based; details: Trypanosoma congolense, IL3000 strain
# Description: In vitro drug sensitivity assay for T. congolense (72 h): Compounds were tested in vitro for efficacy against the IL3000 T. congolense (drug sensitive) strain which was originally derived from the Trans Mara I strain, isolated from a bovine in 1966 in Kenya. […] Compounds were assayed in at least three separate, independent experiments and an 11-point dilution curve was used to determine the EC50 values. Bloodstream form trypanosomes were supported in HMI-9 medium containing 20% bovine serum and were incubated with test compounds for 69 h at 34°C in a humidified atmosphere containing 5% CO2. Thereafter, 10 μL of Resazurin dye (12.5 mg in 100 mL of phosphate-buffered saline, Sigma-Aldrich, Buchs, Switzerland) was added for an additional 3 h. Plates were read using a fluorescence plate reader (Spectramax, Gemini XS, Bucher Biotec, Basel, Switzerland) using an excitation wavelength of 536 nm and an emission wavelength of 588 nm.
# [4] = system: T. cruzi amastigote (Tulahuen strain expressing β-galactosidase); test: Intracellular T. cruzi assay in 3T3 cells (beta-galactosidase, 96 h); type: cell-based, Trypanosoma cruzi; details: read-out: T. cruzi amastigote EC50
# Description: In a 96-well plate, 5×10^4 3T3 cells in DMEM without phenol red supplemented with 2% FBS were added to each well. Cells were incubated for 2 h to allow for attachment. Compounds were added in triplicates at 50 μM and in serial dilutions 1:2. To each well, 5×10^4 T. cruzi trypomastigotes (Tulahuen strain expressing β-galactosidase) were added and incubated at 37°C, 5% CO2 for 96 h. Following incubation, 50 μL of 500 μM chlorophenol Red-β-D-galactopyranoside (CPRG) in phosphate-buffered saline with 0.5% NP40 was added to each well and incubated at 37°C, 5% CO2 for 4 h. Absorbance was read at 590–595 nm.
# [5] = LogD7.4; type: physicochemical; details: pH 7.4
# [6] = Rat hepatocyte intrinsic clearance; type: in vitro ADME; details: for hepatocyte CLint: hepatocytes
# [7] = Human plasma protein binding; type: in vitro ADME
# [8] = system: HepG2 cells; test: Drug toxicity to HepG2 cells (MTT, 48 h); type: cell-based, human; details: tested concentration ranges based on compound solubility
# Description: HepG2 cells were cultured in complete Minimal Essential Medium prepared by supplementing MEM with 0.19% sodium bicarbonate, 10% heat inactivated FBS, 2 mM L-glutamine, 0.1 mM MEM non-essential amino, 0.009 mg/mL insulin, 1.76 mg/mL bovine serum albumin, 20 units/mL penicillin–streptomycin, and 0.05 mg/mL gentamycin. HepG2 cells cultured in complete MEM were first washed with 1× Hank’s Balanced Salt Solution (Invitrogen #14175095), trypsinized using a 0.25% trypsin/EDTA solution, assessed for viability using trypan blue, and resuspended at 250,000 cells/mL. Using a Tecan EVO Freedom robot, 38.3 μL of cell suspension were added to each well of clear, cell culture-treated 384-well microtiter plates for a final concentration of 9570 liver cells per well, and plated cells were incubated overnight in 5% CO2 at 37°C. Drug plates were prepared with the Tecan EVO Freedom using sterile 96 well plates containing twelve duplicate 1.6-fold serial dilutions of each test compound suspended in DMSO. 4.25 μL of diluted test compound was then added to the 38.3 μL of media in each well providing a […] final dilution of compound. Compounds were tested from a range of 57 ng/mL to 10,000 ng/mL for all assays. Mefloquine was used as a plate control for all assays with a concentration ranging from 113 ng/mL to 20,000 ng/mL. After a 48 h incubation period, 8 μL of a 1.5 mg/mL solution of MTT diluted in complete MEM media was added to each well. All plates were subsequently incubated in the dark for 1 h at room temperature. After incubation, the media and drugs in each well was removed by shaking the plate over sink, and the plates were left to dry in a fume hood for 15 mins. Next, 30 μL of isopropanol acidified by addition of HCl at a final concentration of 0.36% was added to dissolve the formazan dye crystals created by reduction of MTT. Plates are put on a 3-D rotator for 15–30 mins. Absorbance was determined in all wells using a Tecan iControl 1.6 Infinite plate reader.
# [9] = Human liver microsome intrinsic clearance; type: in vitro ADME; details: for microsomal CLint: liver microsomes
# [10] = Aqueous solubility; type: physicochemical
# [11] = system: NIH/3T3 cells; test: Drug toxicity to 3T3 cells (Alamar Blue, 96 h); type: cell-based
# Description: In a 96-well plate, 5×10^4 NIH/3T3 (ATCC CRL-1658) cells (purchased from ATCC) in DMEM without phenol red supplemented with 2% FBS were added to each well. Cells were incubated for 2 h to allow for attachment. Compounds were added in triplicates at 200 μM and in serial dilutions 1:2 and incubated at 37°C, 5% CO2 for 96 h. […] Following incubation, 10 μL of Alamar Blue (ThermoFisher) were added to each well and cells incubated at 37°C, 5% CO2 for 4 h. Absorbance was read at 590–595 nm.
# [12] = molecular target: L. major amastigote; test: L. major intracellular amastigote luciferase assay in RAW 264.7 macrophages; type: cell-based, Leishmania major; details: intracellular amastigotes in RAW 264.7 macrophages, 96 h
# Description: Amastigote assays were performed using pLEXSY-hyg2-luciferase L. major transfected promastigotes and the murine RAW 264.7 macrophage cell line (ATCC TIB-71, Manassas, VA). Briefly, luciferase-expressing promastigotes of each Leishmania species were generated by adding a luciferase encoding region to the pLEXSY-hyg2 vector (Jena Biosciences, Germany) as described. One μg of the linearized pLEXSY-hyg2-luciferase vector were electroporated (480 V, 13 Ω, and 500 μF) into 4×10^7 Leishmania promastigotes. Selection for stable promastigote transfectants was carried out using hygromycin B (100 μg/mL). RAW 264.7 macrophages were maintained in growth medium (Dulbecco’s Modified Eagle’s Medium supplemented with heat-inactivated 10% FBS (Life Technologies)). Cells were harvested and resuspended in growth medium at 2.0×10^5 cells/mL, and 1×10^4 cells/well were dispensed (final volume 50 μL) in each well of a 384 well tissue-culture treated white plate using a EVO Freedom liquid handling system (Tecan, Durham, NC). Plates were incubated at 37°C in 5% CO2 for 24 h after which the culture medium was removed from each well using the EVO Freedom liquid handler. Metacyclic phase pLEXSY-hyg2-luciferase-Leishmania promastigotes (MOI = 1:10 L. major) were added to each assay plate well and allowed to infect the RAW 264.7 macrophages. After an overnight incubation, the growth medium was aspirated and each well was washed three times with 40 μL of fresh growth medium to remove non-internalized promastigotes. After the third wash, 69.2 μL of growth medium was added to each well. Compound dilutions (final concentration ranges 0.5–10,000 ng/mL) were generated and dispensed using the liquid handling system. Compound treated plates were incubated at 37°C in 5% CO2 for 96 h. After incubation, 7.5 μL of a luciferin solution (Caliper Life Science, Waltham, MA) diluted to 150 μg/mL was added to each well, and the plates were incubated for 30 min at 37°C in the dark. Data were captured using an Infinite M200 plate reader (Tecan). EC50s were generated for each concentration response test using GraphPad Prism software 6.0.
# [13] = intracellular in 3T3 cells, 96 h
# [14] = Trypanosoma cruzi, TULAHUEN, NIH3T3, 96 h
Compound,EC50 [1],EC50 ([2]; Trypanosoma brucei),EC50 [3],"EC50 [4, 13]",LogD7.4 [5],Rat Hepatocyte CLint [6],Human PPB [7],HepG2 TC50 [8],Human Liver Microsome CLint [9],solubility [10],3T3 TC50 [11],EC50 [2],EC50 [12],"EC50 [4, 14]",logD [5],hepatocyte CLint [6],microsomal CLint [9],"EC50 ([12]; Leishmania major, RAW264.7)"
"N=C(N)c1ccc(/N=N/Nc2ccc(C(=N)N)cc2)cc1 [Diminazene, diminazene aceturate, reference compound]",0.1 µM,0.009 µM,0.13 µM,–,–,–,–,–,–,–,–,–,–,–,–,–,–,–
Cc1cnc(Nc2ccc3c(Nc4cnccn4)ccnc3c2)s1 [NEU-2149],–,–,–,> 50 µM,3.7,> 300 μL/min/10^6 cells,96%,5 µM,54 µL/min/mg,1 µM,> 50 µM,2.3 µM,5.3 µM,–,–,–,–,–
COc1ccc(Nc2ccnc3cc(-c4ccc(C)o4)ccc23)cc1Cl [NEU-2134],–,–,–,1.2 µM,4.8,193 μL/min/10^6 cells,> 99%,42 µM,> 300 µL/min/mg,0.1 µM,> 100 µM,> 20 µM,27 µM,–,–,–,–,–
"CC[n+]1c(-c2ccccc2)c2cc(N/N=N/c3cccc(C(=N)N)c3)ccc2c2ccc(N)cc21 [Isometamidium, isometamidium chloride, reference compound]",0.00012 µM,–,0.006 µM,–,–,–,–,–,–,–,–,–,–,–,–,–,–,–
Cn1ccnc1Nc1ccc2c(Nc3cnccn3)ccnc2c1 [NEU-2147],–,–,–,> 50 µM,1.7,37 μL/min/10^6 cells,57%,42 µM,12 µL/min/mg,160 µM,> 100 µM,49 µM,5.5 µM,–,–,–,–,–
Cc1ccc(-c2ccc3c(Nc4cnccn4)ccnc3c2)o1 [NEU-2133],–,–,–,0.79 µM,4,290 μL/min/10^6 cells,99%,50 µM,190 µL/min/mg,4 µM,> 50 µM,5.3 µM,33 µM,–,–,–,–,–
c1cnc(Nc2ccnc3cc(Nc4nccs4)ccc23)cn1 [NEU-2141],–,–,–,22 µM,3.3,270 μL/min/10^6 cells,91%,7.1 µM,68 µL/min/mg,4 µM,24 µM,4.4 µM,24 µM,–,–,–,–,–
CC(C)(C)OC(=O)Nc1ccc2c(Nc3ccc(OCc4cccc(F)c4)c(Cl)c3)ccnc2c1 [Compound 21],0.29 µM,0.15 µM,0.83 µM,–,–,–,–,–,–,0.2 µM,–,–,–,0.6 µM,4.3,48 µL/min/1e6 cells,29 µL/min/mg,1.1 µM
CN1CCN(c2ncc(-c3ccc4c(Nc5ccc6[nH]nnc6c5)ccnc4c3)cn2)CC1 [NEU-1957],–,–,–,> 50 µM,3.3,51 μL/min/10^6 cells,91%,14 µM,120 µL/min/mg,< 1 µM,> 100 µM,21 µM,21 µM,–,–,–,–,–
Cc1nn(C)c(C)c1Nc1ccc2c(Nc3cnccn3)ccnc2c1 [NEU-2142],–,–,–,> 50 µM,2,32 μL/min/10^6 cells,59%,39 µM,13 µL/min/mg,570 µM,> 100 µM,23 µM,26 µM,–,–,–,–,–
CN1CCN(c2nsnc2-c2ccc3c(Nc4ccc(OCc5cccc(F)c5)c(Cl)c4)ccnc3c2)CC1 [Compound 15],0.21 µM,0.14 µM,0.39 µM,–,–,–,–,–,–,< 0.1 µM,–,–,–,4.7 µM,4.1,35 µL/min/1e6 cells,35 µL/min/mg,0.96 µM
Cn1nccc1Nc1ccc2c(Nc3cnccn3)ccnc2c1 [NEU-2144],–,–,–,> 50 µM,2.4,16 μL/min/10^6 cells,69%,35 µM,10 µL/min/mg,100 µM,> 50 µM,14 µM,28 µM,–,–,–,–,–
